The record followed here is patent US20060160865A1, “Pyridinyl carbamates” (Novo Nordisk A/S, priority 2003, published 2006).

The target of this assay is T1, Hormone-sensitive lipase (HSL) (Homo sapiens, UniProt Q05469).
T1 construct: made in house
T1 sequence (Q05469 1-775 isoform Q05469-2): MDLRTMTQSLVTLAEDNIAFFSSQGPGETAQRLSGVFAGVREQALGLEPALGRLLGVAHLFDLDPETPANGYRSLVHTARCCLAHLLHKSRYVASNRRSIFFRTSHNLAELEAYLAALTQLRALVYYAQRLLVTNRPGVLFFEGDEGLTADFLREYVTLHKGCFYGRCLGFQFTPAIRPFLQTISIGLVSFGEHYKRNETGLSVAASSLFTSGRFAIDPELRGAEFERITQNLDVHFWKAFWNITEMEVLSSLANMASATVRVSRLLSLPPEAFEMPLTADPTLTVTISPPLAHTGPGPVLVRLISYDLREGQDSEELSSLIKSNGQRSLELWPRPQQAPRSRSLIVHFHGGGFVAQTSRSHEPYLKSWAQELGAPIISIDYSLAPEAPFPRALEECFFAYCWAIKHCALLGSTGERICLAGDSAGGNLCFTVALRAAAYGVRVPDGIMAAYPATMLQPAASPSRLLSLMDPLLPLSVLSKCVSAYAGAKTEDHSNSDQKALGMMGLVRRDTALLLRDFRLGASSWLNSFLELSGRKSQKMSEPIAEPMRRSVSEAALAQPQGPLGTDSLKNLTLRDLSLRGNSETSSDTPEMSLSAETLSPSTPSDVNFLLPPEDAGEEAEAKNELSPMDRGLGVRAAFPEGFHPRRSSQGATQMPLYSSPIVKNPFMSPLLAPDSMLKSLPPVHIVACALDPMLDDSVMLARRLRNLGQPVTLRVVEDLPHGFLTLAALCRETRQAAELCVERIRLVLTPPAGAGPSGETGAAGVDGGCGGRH
The experiment in a line: Assay 3190.1: percent inhibition of hormone sensitive lipase by compound at 10 μM (fluorochrome-labeled triacylglyceride substrate). In kind it is biochemical. Conditions: 10 μM sample concentration; % activity relative to non-inhibited sample (no compound); 30 min pre-incubation at 25° C., 120 min at 37° C.; read-out: Test 3190.1 HSL_FL % ACTIVITY
The source says: Materials. The Hormone-sensitive lipase was provided by Dr. Cecilia Holm, from Lund University Sweden or produced and purified by Novo Nordisk (NN) using the reagents and protocols used by Dr. Holm. The substrates used are: ^3H-labeled triolein (TO) from Amersham, Buckinghamshire, U.K. cat No. TRA191; 5-20 Ci/mmol dissolved in toluene, triolein (Sigma, Cat. No. T-1740), fluorochrome-labeled triacylglyceride (cis-octadec-9-enoic acid 2-[12-(7-nitrobenzo[1,2,5]oxadiazol-4-ylamino)dodecanoyloxy]-1-cis-octadec-9-enoyloxymethyl-ethyl ester) prepared by Novo Nordisk (NN) by conventional methods, and 1,3-(di[^3H]-stearin), 2-(PEG-Biotin)glycerol prepared in collaboration with Amersham Pharmacia Biotech, UK and described in WO 01/073442. Phosphatidyl choline (PC) and phosphatidyl inositol (PI) are from Sigma (St Luis Mo. cat. Nos. P-3556 and P-5954 respectively). All other reagents are of commercial grade and obtained from various commercial sources.
3190.1: Assay for determination of percent inhibition of hormone sensitive lipase by compound at 10 μM sample concentration.
A lipid emulsion with fluorochrome-labeled triacylglyceride and phospholipid is used as substrate with a standard concentration of highly purified HSL (12 μg/mL initial concentration corresponding to 600 ng/mL final concentration). BSA is added as product acceptor. The transfer of the fluorochrome from the lipid phase to the water (BSA) phase changes the fluorescent properties of the fluorochrome. The changes can be monitored on a fluorimeter with an excitation wavelength of 450 nm and an emission wavelength of 545 nm.
Compound and HSL (20 μL compound, 10 μL enzyme and 70 μL PED-BSA buffer) is pre-incubated for 30 min at 25° C. before addition of substrate (100 μL). Amount of formed product is measured after 120 min incubation at 37° C.
Results are given as percent activity relative to a non-inhibited sample (no compound). 3190.2: Assay for determination of IC50 value for the inhibition of hormone sensitive lipase by compound. Standard concentrations of compound are 100 μM and 5-fold dilutions (initial concentration corresponding to 10 μM final concentration and 5-fold).
With `CN(C(=O)Oc1ccc(NC(=S)NCC(C)(C)C)cn1)c1ccccc1` [Example 12, Methyl-phenyl-carbamic acid 5-[3-(2,2-dimethyl-propyl)-thioureido]-pyridin-2-yl ester], the activity at 10 µM was found to be 2%.

As to `COc1cccc(C(=O)Nc2ccc(OC(=O)N(C)c3ccccc3)nc2)c1` [Example 21, Methyl-phenyl-carbamic acid 5-(3-methoxy-benzoylamino)-pyridin-2-yl ester], the activity at 10 µM stood at 1%.

Turning to `CC1CCCCN1Cc1ccc(C(=O)Nc2ccc(OC(=O)N(C)c3ccccc3)nc2)cc1` (stereo not drawn) [Example 43, Methyl-phenyl-carbamic acid 5-[4-(2-methyl-piperidin-1-ylmethyl)-benzoylamino]-pyridin-2-yl ester], the activity at 10 µM is 7%.

For the compound `CN(C(=O)Oc1ccc(NC(=O)NC(C)(C)C)cn1)c1ccccc1` [Example 35, Methyl-phenyl-carbamic acid 5-(3-tert-butyl-ureido)-pyridin-2-yl ester], the activity at 10 µM worked out at 8%.

Consider `CN(C)c1cccc(C(=O)Nc2ccc(OC(=O)N(C)c3ccccc3)nc2)c1` [Example 31, Methyl-phenyl-carbamic acid 5-(3-dimethylamino-benzoylamino)-pyridin-2-yl ester], for which the activity at 10 µM is 3%.

For `CCC1NC(=S)N(c2ccc(OC(=O)N(C)c3ccccc3)nc2)C1=O` (stereo not drawn) [Example 8, Methyl-phenyl-carbamic acid 5-(4-ethyl-5-oxo-2-thioxo-imidazolidin-1-yl)-pyridin-2-yl ester], the activity at 10 µM turned out to be 3%.

On to `CN(C(=O)Oc1ccc(N2C(=O)CC(C)(C)CC2=O)cn1)c1ccc(Br)cc1` [Example 65, (4-Bromo-phenyl)-methyl-carbamic acid 4,4-dimethyl-2,6-dioxo-3,4,5,6-tetrahydro-2H-[1,3′]bipyridinyl-6′-yl ester], for which the activity at 10 µM was determined as 0%.

As to `CCCCNC(=S)Nc1ccc(OC(=O)N(C)c2ccccc2)nc1` [Example 16, Methyl-phenyl-carbamic acid 5-(3-butyl-thioureido)-pyridin-2-yl ester], the activity at 10 µM stood at 1%.

As to `CC1CCN(C(=S)Nc2ccc(OC(=O)N(C)c3ccccc3)nc2)CC1` [Example 63, Methyl-phenyl-carbamic acid 5-[(4-methyl-piperidine-1-carbothioyl)-amino]-pyridin-2-yl ester], the activity at 10 µM is 2%.

With `CN(C(=O)Oc1ccc(CCN2C(=O)CC(C)(C)CC2=O)cn1)c1ccccc1` [Example 1, Methyl-phenyl-carbamic acid 5-[2-(4,4-dimethyl-2,6-dioxo-piperidin-1-yl)-ethyl]-pyridin-2-yl ester], the activity at 10 µM was 0%.

For the compound `CN(C(=O)Oc1ccc(NC(=O)c2ccc(-n3ccnc3)cc2)cn1)c1ccccc1` [Example 57, Methyl-phenyl-carbamic acid 5-(4-imidazol-1-yl-benzoylamino)-pyridin-2-yl ester], the activity at 10 µM stood at 17%.

Turning to `CN(C(=O)Oc1ccc(NC(=O)c2ccc(CN3CCCC3)cc2)cn1)c1ccccc1` [Example 47, Methyl-phenyl-carbamic acid 5-(4-pyrrolidin-1-ylmethyl-benzoylamino)-pyridin-2-yl ester], the activity at 10 µM is 7%.

As to `CN(C(=O)Oc1ccc(N2C(=O)CC(C)(C)CC2=O)cn1)c1ccc(CCO)cc1` [Example 77, [4-(2-Hydroxy-ethyl)-phenyl]-methyl-carbamic acid 4,4-dimethyl-2,6-dioxo-3,4,5,6-tetrahydro-2H-[1,3′]bipyridinyl-6′-yl ester], the activity at 10 µM was 12%.

As to `COc1ccc(N(C)C(=O)Oc2ccc(N3C(=O)CC(C)(C)CC3=O)cn2)cc1` [Example 72, (4-Methoxy-phenyl)-methyl-carbamic acid 4,4-dimethyl-2,6-dioxo-3,4,5,6-tetrahydro-2H-[1,3′]bipyridinyl-6′-yl ester], the activity at 10 µM is 2%.

In the case of `CN(C(=O)Oc1ccc(NC(=O)c2cccc(C(F)(F)F)c2F)cn1)c1ccccc1` [Example 28, Methyl-phenyl-carbamic acid 5-(2-fluoro-3-trifluoromethyl-benzoylamino)-pyridin-2-yl ester], the activity at 10 µM is 1%.

Turning to `CC1CCN(Cc2ccc(C(=O)Nc3ccc(OC(=O)N(C)c4ccccc4)nc3)cc2)CC1` [Example 41, Methyl-phenyl-carbamic acid 5-[4-(4-methyl-piperidin-1-ylmethyl)-benzoylamino]-pyridin-2-yl ester], the activity at 10 µM is 3%.

`CN(C(=O)Oc1ccc(NCC(=O)OC(C)(C)C)cn1)c1ccccc1` [Example 2, [6-(Methyl-phenyl-carbamoyloxy)-pyridin-3-ylamino]-acetic acid tert-butyl ester]: the activity at 10 µM stood at 1%.

Take `CN(C(=O)Oc1ccc(N2C(=O)CNC2=S)cn1)c1ccccc1` [Example 5, Methyl-phenyl-carbamic acid 5-(5-oxo-2-thioxo-imidazolidin-1-yl)-pyridin-2-yl ester]: the activity at 10 µM amounted to 9%.

For `C[C@@H]1CN(Cc2ccc(C(=O)Nc3ccc(OC(=O)N(C)c4ccccc4)nc3)cc2)C[C@H](C)O1` [Example 52, cis-Methyl-phenyl-carbamic acid 5-[4-(2,6-dimethyl-morpholin-4-ylmethyl)-benzoylamino]-pyridin-2-yl ester], the activity at 10 µM came out at 4%.

Turning to `CCN(CC)c1ccc(C(=O)Nc2ccc(OC(=O)N(C)c3ccccc3)nc2)cc1` [Example 58, Methyl-phenyl-carbamic acid 5-(4-diethylamino-benzoylamino)-pyridin-2-yl ester], the activity at 10 µM turned out to be 11%.

`COc1ccccc1N(C)C(=O)Oc1ccc(N2C(=O)CC(C)(C)CC2=O)cn1` [Example 32, (2-Methoxy-phenyl)-methyl-carbamic acid 4,4-dimethyl-2,6-dioxo-3,4,5,6-tetrahydro-2H-[1,3′]bipyridinyl-6′-yl ester]: the activity at 10 µM stood at 6%.
